Source: patent US9233978B2, “6-fused heteroaryldihydropyrimidines for the treatment and prophylaxis of hepatitis B virus infection” (Hoffmann-La Roche Inc., priority 2014, dated 2016)
pEC50: −log10 of the molar value. Converted amounts (≈) assume the structure as drawn. Read-outs that look alike come from different tables or passages of the source.

Legend:
HBV = assay: Anti-HBV activity in vitro, HepG2.2.15 cells, extracellular HBV DNA by qPCR; format: cell-based; conditions: HepG2.2.15 cells, HBV replication inhibited by 50%, extracellular HBV DNA by qPCR, five days after compound treatment, read-out: EC50
Procedure, shortened: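 HBV-producing HepG2.2.15 cells were seeded and left overnight at 37 °C, then treated with half-log serial compound dilutions at a final 0.5% DMSO. After 5 days, viral DNA was extracted from the supernatant and extracellular HBV DNA was quantified by qPCR.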

[1] = Cytotoxicity in HepDE19 cells (CCK-8) and selectivity index; format: cell-based; conditions: human, HepDE19 cells; CCK-8 cell viability; five days after treatment
Description: (§1) HepG2.2.15 and HepDE19 are stably-transfected cell lines containing the HBV genome. Both cell lines are derived from the hepatoblastoma cell line Hep G2 (American Type Culture Collection, ATCC® HB-8065™) by the published procedures described in references: MA Selles et al. Proc. Natl. Acad. Sci. USA 1987, 84, 1005-1009 and H Guo et al. Journal of Virology 2007, 81, 12472-12484, respectively. Both cell lines were maintained in Dulbecco's modified Eagle's medium (DMEM)-F12 medium supplemented with 10% fetal bovine serum, 100 U/mL penicillin, 100 μg/mL streptomycin, and 0.5 mg/mL of G418.
(§2) HepDE19 cells were seeded into 96-well plates (5×10^3 cells per well) and treated with compounds for EC50 determination. Five days after treatment, cell viability was measured by addition of 20 μL of CCK-8 reagent. Two hours after incubation at 37° C., the absorbance at wavelengths of 450 nm and 630 nm (OD450 and OD630) was recorded by a plate reader. The concentration results in the death of 50% of the host cells (CC50) of each compound were determined.
(§3) The relative effectiveness of the compound in inhibiting viral replication compared to inducing cell death was defined as the selectivity index (CC50 value/EC50 value). Based on CC50 and EC50 data, selectivity indexes were determined.

HepDE19 cells = assay: as above; format: cell-based; conditions: for Selectivity index (CC50/EC50): CC50 (HepDE19) value / EC50 (HepG2.2.15) value; for CC50: HepDE19 cells, CCK-8 cell viability, five days after treatment
Description: as §1, §2, §3

Lysa solubility = format: physicochemical; conditions: 0.05 M phosphate buffer (pH 6.5); for solubility thermodynamic: phosphate buffer, pH 6.5, aqueous buffer, thermodynamic from solid
Protocol: Samples were prepared in duplicate from 10 mM DMSO stock solutions. After evaporation of DMSO with a centrifugal vacuum evaporator, the residue was solved in 0.05 M phosphate buffer (pH 6.5), stirred for one hour and shook for two hours. After one night, the solution was filtered using a microtiter filter plate. Then the filtrate and its 1/10 dilution were analyzed by direct UV measurement or by HPLC-UV. […] The results were in μg/mL. In case the percentage of sample measured in solution after evaporation divided by the calculated maximum of sample amount was over 80%, the solubility was reported as higher than this value.

[2] = Human microsomal metabolic stability; format: in vitro ADME; conditions: human microsomes 0.5 mg/mL, 1 μM test compound, NADPH, 37° C., pH 7.4, 0-30 minutes
Protocol: Human Microsomes (BD Gentest) were preincubated with test compound for 10 minutes at 37° C. in 100 mM phosphate buffer, pH 7.4. The reactions were initiated by adding NADPH or NADPH regenerating system to give a final incubation volume of 400 μL. For NADPH system, the final incubations contained 1 μM test compound, 0.5 mg/mL liver microsomal protein, 1 mM NADPH in 100 mM phosphate buffer, pH 7.4. For the NADPH regenerating system, the final incubations contained 1 μM test compound, 0.5 mg/mL liver microsomal protein, 3 mM glucose 6-phosphate, 1 mM NADP, 3 mM MgCl2 and 0.05 mg/mL glucose 6-phosphate dehydrogenase in 100 mM phosphate buffer, pH 7.4. After incubation times of 0, 3, 6, 9, 15 and 30 minutes at 37° C., 1 sample was obtained from each time point and 50 μL of each sample was removed and transferred to 150 μL of methanol solution which was maintained at 4° C. and contained 2 μM tolbutamide as internal standard. Following precipitation and centrifugation, the amount of compound remaining in the samples were determined by LC-MS/MS. Controls of no NADPH or no NADPH regenerating system at zero and 30 minutes were also prepared and analyzed.

[3] = Hepatitis B virus, HepG2.2.15, 120 h

CCOC(=O)C1=C(CN2CCN3C(=O)N(CCO)CC3C2)NC(c2nccs2)=N[C@H]1c1cccc(F)c1Cl (stereo partly drawn) [Example 70, Ethyl (4R)-4-(2-chloro-3-fluoro-phenyl)-6-[[2-(2-hydroxyethyl)-3-oxo-5,6,8,8a-tetrahydro-1H-imidazo[1,5-a]pyrazin-7-yl]methyl]-2-thiazol-2-yl-1,4-dihydropyrimidine-5-carboxylate]
pEC50 (HBV; [3]): 8.30
CC50 at 5 days [1]: 63000 nM
Selectivity index (CC50/EC50) (HepDE19 cells): 12600

COC(=O)C1=C(CN2CCN3C(=O)NCC3(C(=O)OC)C2)NC(c2nccs2)=N[C@H]1c1ccc(F)cc1Cl (stereo partly drawn) [Example 89, Methyl 7-[[(4R)-4-(2-chloro-4-fluoro-phenyl)-5-methoxycarbonyl-2-thiazol-2-yl-1,4-dihydropyrimidin-6-yl]methyl]-3-oxo-2,5,6,8-tetrahydro-1H-imidazo[1,5-a]pyrazine-8a-carboxylate]
pEC50 (HBV; [3]): 8.15
CC50 at 5 days [1]: 75000 nM
Selectivity index (CC50/EC50) (HepDE19 cells): 10714

COC(=O)C1=C(CN2CCN3C(=O)N(C4CCC(C(=O)O)C4)C[C@@H]3C2)NC(c2nccs2)=N[C@H]1c1ccc(F)cc1Cl (mixture of isomers) [Example 63, (R)-6-[(S)-2-((1R,3R)-3-Carboxy-cyclopentyl)-3-oxo-hexahydro-imidazo[1,5-a]pyrazin-7-ylmethyl]-4-(2-chloro-4-fluoro-phenyl)-2-thiazol-2-yl-1,4-dihydro-pyrimidine-5-carboxylic acid methyl ester and (R)-6-[(S)-2-((1S,3S)-3-Carboxy-cyclopentyl)-3-oxo-hexahydro-imidazo[1,5-a]pyrazin-7-ylmethyl]-4-(2-chloro-4-fluoro-phenyl)-2-thiazol-2-yl-1,4-dihydro-pyrimidine-5-carboxylic acid methyl ester]
Lysa (Lysa solubility): >751 µg/mL
Human Microsomal Clearance [2]: 5.3 mL/min/kg
pEC50 (HBV): 7.92
Selectivity index (CC50/EC50) (HepDE19 cells): 7583
CC50 (HepDE19 cells): 91000 nM

CCOC(=O)C1=C(CN2CCN3C(=O)N(c4ccc(C(=O)O)cc4)C[C@@H]3C2)NC(c2nccs2)=N[C@H]1c1cccc(F)c1Cl [Example 26, (R)-6-[(S)-2-(4-Carboxy-phenyl)-3-oxo-hexahydro-imidazo[1,5-a]pyrazin-7-ylmethyl]-4-(2-chloro-3-fluoro-phenyl)-2-thiazol-2-yl-1,4-dihydro-pyrimidine-5-carboxylic acid ethyl ester]
pEC50 (HBV; [3]): 8.70
CC50 at 5 days [1]: 28000 nM
Selectivity index (CC50/EC50) (HepDE19 cells): 18620

CCOC(=O)C1=C(CN2CCN3C(=O)NC[C@@H]3C2)NC(c2nccs2)=N[C@H]1c1ccc(F)cc1Br [Example 14, Ethyl (4R)-6-[[(8aR)-3-oxo-1,2,5,6,8,8a-hexahydroimidazo[1,5-a]pyrazin-7-yl]methyl]-4-(2-bromo-4-fluoro-phenyl)-2-thiazol-2-yl-1,4-dihydropyrimidine-5-carboxylate]
pEC50 (HBV; [3]): 8.70
CC50 at 5 days [1]: 23000 nM
Selectivity index (CC50/EC50) (HepDE19 cells): 13016

COC(=O)C1=C(CN2CCN3C(=O)OC[C@@H]3C2)NC(c2nccs2)=N[C@H]1c1ccc(F)cc1Cl [Example 4, Methyl (4R)-6-[[(8aS)-3-oxo-5,6,8,8a-tetrahydro-1H-oxazolo[3,4-a]pyrazin-7-yl]methyl]-4-(2-chloro-4-fluoro-phenyl)-2-thiazol-2-yl-1,4-dihydropyrimidine-5-carboxylate]
pEC50 (HBV; [3]): 8.52
CC50 at 5 days [1]: 79000 nM
Selectivity index (CC50/EC50) (HepDE19 cells): 23872

COC(=O)C1=C(CN2CCN3C(=O)N(C(C)C)C[C@H]3[C@@H]2C(=O)O)NC(c2nccs2)=N[C@H]1c1ccc(F)c(F)c1C (single isomer, unassigned) [Example 85A]
Lysa (Lysa solubility): > 660 µg/mL
Human Microsomal Clearance [2]: 4.9 mL/min/kg
pEC50 (HBV; [3]): 6.59

CCOC(=O)C1=C(CN2CCN3C(=O)N(CCOCC(=O)O)CC3C2)NC(c2nccs2)=N[C@H]1c1cccc(F)c1Cl (stereo partly drawn) [Example 67, 2-[2-[7-[[(4R)-4-(2-chloro-3-fluoro-phenyl)-5-ethoxycarbonyl-2-thiazol-2-yl-1,4-dihydropyrimidin-6-yl]methyl]-3-oxo-5,6,8,8a-tetrahydro-1H-imidazo[1,5-a]pyrazin-2-yl]ethoxy]acetic acid]
solubility thermodynamic (Lysa solubility): > 794 µg/mL
Human Microsomal Clearance [2]: 4.7 mL/min/kg
pEC50 (HBV; [3]): 6.36

CCOC(=O)C1=C(CN2CCN3C(=O)N(CCCOCC(=O)O)CC3C2)NC(c2nccs2)=N[C@H]1c1cccc(F)c1Cl (stereo partly drawn) [Example 68, 2-[3-[7-[[(4R)-4-(2-chloro-3-fluoro-phenyl)-5-ethoxycarbonyl-2-thiazol-2-yl-1,4-dihydropyrimidin-6-yl]methyl]-3-oxo-5,6,8,8a-tetrahydro-1H-imidazo[1,5-a]pyrazin-2-yl]propoxy]acetic acid]
solubility thermodynamic (Lysa solubility): > 794 µg/mL
Human Microsomal Clearance [2]: 4.5 mL/min/kg
pEC50 (HBV; [3]): 6.84

COC(=O)C1=C(CN2CCN3C(=O)N(C(C)(C)CC(=O)O)C[C@@H]3C2)NC(c2nccs2)=N[C@H]1c1ccc(F)c(F)c1C [Example 37, 3-[(8aS)-7-[[(4S)-4-(3,4-difluoro-2-methyl-phenyl)-5-methoxycarbonyl-2-thiazol-2-yl-1,4-dihydropyrimidin-6-yl]methyl]-3-oxo-5,6,8,8a-tetrahydro-1H-imidazo[1,5-a]pyrazin-2-yl]-3-methyl-butanoic acid]
solubility thermodynamic (Lysa solubility): 422 µg/mL (≈ 700 µM)
Human Microsomal Clearance [2]: 2.5 mL/min/kg
pEC50 (HBV; [3]): 7.77

CCOC(=O)C1=C(CN2CCN3C(=O)N(C4CCC(C(=O)O)C4)C[C@@H]3C2)NC(c2nccs2)=N[C@H]1c1cccc(F)c1Cl (mixture of isomers) [Example 64, (R)-6-[(S)-2-((1R,3R)-3-Carboxy-cyclopentyl)-3-oxo-hexahydro-imidazo[1,5-a]pyrazin-7-ylmethyl]-4-(2-chloro-3-fluoro-phenyl)-2-thiazol-2-yl-1,4-dihydro-pyrimidine-5-carboxylic acid ethyl ester and (R)-6-[(S)-2-((1S,3S)-3-Carboxy-cyclopentyl)-3-oxo-hexahydro-imidazo[1,5-a]pyrazin-7-ylmethyl]-4-(2-chloro-3-fluoro-phenyl)-2-thiazol-2-yl-1,4-dihydro-pyrimidine-5-carboxylic acid ethyl ester]
Lysa (Lysa solubility): >669 µg/mL
Human Microsomal Clearance [2]: 5.6 mL/min/kg
pEC50 (HBV): 8.10
Selectivity index (CC50/EC50) (HepDE19 cells): 8375
CC50 (HepDE19 cells): 67000 nM

CCOC(=O)C1=C(CN2CCN3C(=O)N(CCCC(=O)O)C[C@@H]3C2)NC(c2nccs2)=N[C@H]1c1cccc(F)c1Cl [Example 53, 4-[(8aS)-7-[[(4R)-4-(2-chloro-3-fluoro-phenyl)-5-ethoxycarbonyl-2-thiazol-2-yl-1,4-dihydropyrimidin-6-yl]methyl]-3-oxo-5,6,8,8a-tetrahydro-1H-imidazo[1,5-a]pyrazin-2-yl]butanoic acid]
solubility thermodynamic (Lysa solubility): > 723 µg/mL
Human Microsomal Clearance [2]: 5.1 mL/min/kg
pEC50 (HBV; [3]): 7.72
